Consider three molecules from ChEMBL document CHEMBL1201862, “PubChem BioAssay data set” (2004).

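Each compound was tested at five concentrations against cells in 96-well plates for 48 hours. Here, GI50 denotes the concentration required for 50% inhibition of growth.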 The source made the active and inactive calls. Cut-off read from the data, not from the text of the source: active = GI50 up to about 1.1 µM and inactive = higher.

Among the test systems are CCRF-CEM; COLO 205; DMS-114; EKVX; HOP-62; HOP-92; HT-29; Hs-578T; IGROV-1; M14; MDA-MB-435; NCI-H23; OVCAR-4; OVCAR-5; PC-3; SF-268; SK-MEL-28; SNB-75; SW-620; T47D.
Experiment in all cases: NCI-60 cell line screen, 48 h

With `COc1ccccc1/C=C1\CCC(Cc2ccccc2)(CN(C)C)C1=O` (stereo not given), the GI50 with CCRF-CEM is 0.528 µM (active); in the test on COLO 205 it was 1.37 µM (inactive); with DMS-114, 2.23 µM (inactive); in the test on EKVX it was 3.35 µM (inactive); in the test with HOP-62 it was 11.6 µM (inactive); in the test on HOP-92 it was 27.5 µM (inactive). Further, the GI50 in the test on HT-29 is 0.426 µM (active); in the test on Hs-578T, 0.834 µM (active); in the test on IGROV-1, 3.67 µM (inactive); in the test with M14, 3.13 µM (inactive); in the test with MDA-MB-435, 1.07 µM (active); with NCI-H23, 6.43 µM (inactive). Besides, the GI50 is 17.8 µM (inactive) with OVCAR-4; 14.5 µM (inactive) in the test on OVCAR-5; 1.03 µM (active) in the test with PC-3; 4.85 µM (inactive) in the test with SF-268; 20.3 µM (inactive) in the test with SK-MEL-28; 3.32 µM (inactive) in the test with SNB-75. For the same molecule, the results for the GI50 in the test with SW-620 and with T47D were 0.259 µM (active) and 22.2 µM (inactive), respectively.

For the molecule `CC(C)NC(=O)OCc1c(COC(=O)NC(C)C)c(-c2ccc(Cl)c(Cl)c2)n2c1CCC2`, the GI50 is 26.5 µM (inactive) in the test on CCRF-CEM; 52.8 µM (inactive) in the test with COLO 205; 33.7 µM (inactive) in the test with DMS-114; 57.1 µM (inactive) in the test on EKVX; 38.5 µM (inactive) in the test on HOP-62; 29.4 µM (inactive) in the test on HOP-92. Moreover, the GI50 was 40.9 µM (inactive) in the test on HT-29; > 97.5 µM (inactive) with Hs-578T; 50 µM (inactive) with IGROV-1; 35.9 µM (inactive) with M14; > 100 µM (inactive) with MDA-MB-435; 46.9 µM (inactive) in the test on NCI-H23. Also, the GI50 in the test on OVCAR-4 is > 66.5 µM (inactive); in the test with OVCAR-5 it was 44.9 µM (inactive); with PC-3, > 80.7 µM (inactive); with SF-268, 43.5 µM (inactive); with SK-MEL-28, 65 µM (inactive); in the test with SNB-75 it was 39.4 µM (inactive). The GI50 with SW-620 was 21 µM (inactive); with T47D it was 50.5 µM (inactive).

On to `O=C(/C=C/c1ccc(O)c(O)c1)c1ccc(O)cc1O` [BUTEIN], for which the GI50 in the test on CCRF-CEM was 3.75 µM (inactive); with COLO 205, 14.5 µM (inactive); in the test on DMS-114 it was 2.47 µM (inactive); in the test with EKVX, 26.9 µM (inactive); in the test with HOP-62, 17.4 µM (inactive); in the test with HOP-92, 15.7 µM (inactive). Moreover, the GI50 was 17.5 µM (inactive) in the test on HT-29; 19.4 µM (inactive) in the test with Hs-578T; 15.2 µM (inactive) in the test on IGROV-1; 16.3 µM (inactive) in the test on M14; 9.08 µM (inactive) in the test with MDA-MB-435; 16.7 µM (inactive) in the test on NCI-H23. For the same molecule, the GI50 with OVCAR-4 is 19.1 µM (inactive); in the test on OVCAR-5, 17.4 µM (inactive); in the test with PC-3, 19.6 µM (inactive); with SF-268, 14.8 µM (inactive); in the test with SK-MEL-28 it was 14.5 µM (inactive); in the test with SNB-75, 11.1 µM (inactive). The GI50 in the test with SW-620 was 8.53 µM (inactive); in the test with T47D it was 14.4 µM (inactive).
